Measurements taken from BindingDB's records for doi:10.1021/jm070336k (University of Mississippi, 2007).

Columns and labels:
[1] = biological target: L-lactate dehydrogenase B chain (Bos taurus, UniProt Q5E9B1); assay: Lactate Dehydrogenase Inhibition Assay; details: pH 7; 25 °C
L-lactate dehydrogenase = L-lactate dehydrogenase (Plasmodium falciparum (isolate CDC / Honduras), UniProt Q27743); assay: Lactate Dehydrogenase Inhibition Assay; details: pH 7; 25 °C
Chain of L-lactate dehydrogenase (Q27743 whole entry): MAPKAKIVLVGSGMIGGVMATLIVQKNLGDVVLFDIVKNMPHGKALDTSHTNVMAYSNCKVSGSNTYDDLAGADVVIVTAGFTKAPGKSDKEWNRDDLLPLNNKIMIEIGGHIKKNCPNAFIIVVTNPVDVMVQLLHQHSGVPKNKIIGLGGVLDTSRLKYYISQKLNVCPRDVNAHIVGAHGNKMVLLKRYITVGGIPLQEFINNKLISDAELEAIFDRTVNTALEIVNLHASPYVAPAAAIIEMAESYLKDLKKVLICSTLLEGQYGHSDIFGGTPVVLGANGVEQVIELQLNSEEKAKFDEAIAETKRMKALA

Chain of L-lactate dehydrogenase B chain (Q5E9B1 whole entry): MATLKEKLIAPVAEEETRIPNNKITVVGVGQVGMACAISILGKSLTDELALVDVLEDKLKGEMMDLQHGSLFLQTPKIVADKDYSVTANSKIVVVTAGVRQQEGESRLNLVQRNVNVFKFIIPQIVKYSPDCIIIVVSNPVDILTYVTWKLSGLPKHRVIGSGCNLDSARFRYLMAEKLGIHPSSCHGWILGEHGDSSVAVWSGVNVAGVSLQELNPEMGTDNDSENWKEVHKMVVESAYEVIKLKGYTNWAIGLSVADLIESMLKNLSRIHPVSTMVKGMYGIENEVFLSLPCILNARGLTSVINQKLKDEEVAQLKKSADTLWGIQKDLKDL

Compound | IC50 [1] | IC50 (L-lactate dehydrogenase)
COc1ccc(CNC(=O)c2cc(=O)c3c(O)cc(OCCc4ccc(NC(=O)C(=O)O)cc4)cc3o2)cc1 [[(4-{2-[(5-hydroxy-2-{[(4-methoxyphenyl)methyl]carbamoyl}-4-oxo-4H-chromen-7-yl)oxy]ethyl}phenyl)carbamoyl]formic acid] | > 187 µM | 
O=C(O)C(=O)Nc1ccc(CCOc2cc(O)c3c(=O)cc(C(=O)O)oc3c2)cc1 [7-{2-[4-(formamidoformic acid)phenyl]ethoxy}-5-hydroxy-4-oxo-4H-chromene-2-carboxylic acid] | > 241 µM | > 241 µM
COc1cc(CCOc2cc(O)c3c(=O)cc(C(=O)O)oc3c2)ccc1NC(=O)C(=O)O [7-{2-[4-(formamidoformic acid)-3-methoxyphenyl]ethoxy}-5-hydroxy-4-oxo-4H-chromene-2-carboxylic acid] | > 225 µM | 
COc1cc(COc2cc(O)c3c(=O)cc(C(=O)O)oc3c2)ccc1NC(=O)C(=O)O [7-{[4-(formamidoformic acid)-3-methoxyphenyl]methoxy}-5-hydroxy-4-oxo-4H-chromene-2-carboxylic acid] | > 232 µM | 
COc1ccc(CNC(=O)c2cc(=O)c3c(O)cc(OCCc4ccc(NC(=O)C(=O)O)c(C#N)c4)cc3o2)cc1 [[(2-cyano-4-{2-[(5-hydroxy-2-{[(4-methoxyphenyl)methyl]carbamoyl}-4-oxo-4H-chromen-7-yl)oxy]ethyl}phenyl)carbamoyl]formic acid] | > 179 µM | 
